The term IC50 denotes the concentration that inhibits the measured activity by half.

Drawing on paper PMC10415338, “HIV-1-induced nuclear invaginations mediated by VAP-A, ORP3, and Rab7 complex explain infection of activated T cells” (Nature Communications, 2023), this text covers IC50 for two compounds.

This assay has as its target T1, VOR complex (VAP-A, ORP3, Rab7); Rab7 binding to ORP3 (Homo sapiens, UniProt Q9H4L5).
T1 construct: gene OSBPL3; endogenous full-length proteins in HeLa detergent lysate, ORP3 immunoisolated with antibody D-12; with Ras-related protein Rab-7a; Vesicle-associated membrane protein-associated protein A
T1 sequence (Q9H4L5 1-887): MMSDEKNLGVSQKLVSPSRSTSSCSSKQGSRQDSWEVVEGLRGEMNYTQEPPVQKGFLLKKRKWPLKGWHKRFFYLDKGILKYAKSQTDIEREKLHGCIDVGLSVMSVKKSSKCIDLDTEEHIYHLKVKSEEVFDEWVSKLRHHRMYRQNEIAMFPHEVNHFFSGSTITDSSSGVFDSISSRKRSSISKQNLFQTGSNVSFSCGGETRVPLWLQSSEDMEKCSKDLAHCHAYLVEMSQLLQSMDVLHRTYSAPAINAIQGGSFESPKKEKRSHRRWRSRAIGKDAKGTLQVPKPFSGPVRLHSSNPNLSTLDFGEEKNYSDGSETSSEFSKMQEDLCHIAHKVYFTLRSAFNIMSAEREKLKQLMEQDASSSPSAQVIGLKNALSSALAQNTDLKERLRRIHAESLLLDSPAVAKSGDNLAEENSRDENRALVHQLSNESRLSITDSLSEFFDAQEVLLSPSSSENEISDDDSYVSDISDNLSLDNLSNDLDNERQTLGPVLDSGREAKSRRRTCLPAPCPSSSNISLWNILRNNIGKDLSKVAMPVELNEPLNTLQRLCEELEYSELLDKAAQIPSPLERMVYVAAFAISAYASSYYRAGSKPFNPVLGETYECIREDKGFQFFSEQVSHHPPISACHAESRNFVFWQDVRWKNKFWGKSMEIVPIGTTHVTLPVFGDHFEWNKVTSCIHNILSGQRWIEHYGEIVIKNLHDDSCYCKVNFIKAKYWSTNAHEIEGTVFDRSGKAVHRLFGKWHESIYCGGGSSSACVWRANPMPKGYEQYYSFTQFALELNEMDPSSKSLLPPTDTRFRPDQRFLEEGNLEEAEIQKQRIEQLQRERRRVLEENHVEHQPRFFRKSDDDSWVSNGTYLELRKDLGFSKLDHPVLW
T1 sequence (Q9P0L0 2-249 partner): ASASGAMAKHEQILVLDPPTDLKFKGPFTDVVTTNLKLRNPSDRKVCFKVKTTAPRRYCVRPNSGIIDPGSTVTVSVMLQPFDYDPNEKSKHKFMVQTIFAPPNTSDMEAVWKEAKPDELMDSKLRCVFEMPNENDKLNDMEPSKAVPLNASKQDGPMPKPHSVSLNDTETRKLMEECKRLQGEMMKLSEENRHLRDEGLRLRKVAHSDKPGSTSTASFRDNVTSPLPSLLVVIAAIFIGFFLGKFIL
Description: ORP3 immunoisolation from drug-treated HeLa detergent lysate, Rab7/ORP3 immunoblot ratio, linear regression. Particulars: inhibition of Rab7 binding to ORP3 (VAP-A/ORP3); lysate with 1-10 μM compound, 30 min on ice; direct site on ORP3 ORD only cited from earlier work. The class given is biochemical. Background: Immunoblotting shows a protein as a band on a membrane.

For `CCC(C)n1ncn(-c2ccc(N3CCN(c4ccc(OCC5COC(Cn6cncn6)(c6ccc(Cl)cc6Cl)O5)cc4)CC3)cc2)c1=O` (stereo not drawn) [ICZ, cis-4[4-4-4[[2-(2-4-dichlorophenyl)-2-(1H-1,2,4,triazol-1-methyl)-1,3-dioxolan-4-yl]-1-piperazinyl]phenyl]-2,4-dihydro-2-(1-methyl-propyl)-3H-1,2,4-triazol-3-one], the 50% inhibitory concentration (IC50) amounted to 4.9 µM.
On to `CCC(C)n1ncn(-c2ccc(Cl)cc2)c1=O` (centres unmarked) [PRR851], for which the IC50 amounted to 4.8 µM.
